Consider 31 sequences from the OligoGym collection.

The data set concerns the target SNHG14. Conditions: ASO.

After the bases stand the sugars from the 5' end (letter, count) and the backbone: PS all phosphorothioate, else s phosphorothioate and o phosphodiester by linkage. Methylation of C is not given here. l = locked nucleic acid (LNA); d = 2'-deoxy (DNA)

As to ATCCTATGTTAATACT (sugars l4 d10 l2, PS), the target mRNA inhibition is 14% (Human Neuronal Cell, 0.2 µM) and 33% (Human Neuronal Cell, 1 µM).
Take “TTTACTCTGCAATACAC (sugars l3 d11 l3, PS)”: the target mRNA inhibition runs as follows: (Human Neuronal Cell, 0.2 µM) 41%; (Human Neuronal Cell, 1 µM) 56%.
With “TGTTTATACCCTTTCCAA (sugars lddlddddddddlddlll, PS)”, the target mRNA inhibition (Human Neuronal Cell, 7.5 µM) is 61%.
As for “AAAGATCATTCTCAACAA (sugars ldllldddddddlldlll, PS)”, the target mRNA inhibition (Human Neuronal Cell, 7.5 µM) came out at 65%.
Same read-out and setting: for “TTGATTCAATTCCCTTA (sugars ldldlddddddddldll, PS)” the value was 59%; for “TGAAAATCTCAACTACCAT (sugars l1 d11 l1 d2 l4, PS)”, 24%; for “TGTTTATACCCTTTCCAA (sugars l1 d12 l2 d1 l2, PS)”, 58%.
For “GATCATTCTCAACAATTA (sugars llddllddddddllddll, PS)”, the target mRNA inhibition (Human Neuronal Cell, 7.5 µM) came to 49%.
Still for that read-out and setting: the figure for “GCAACATTATTAACCACCT (sugars lldddlddddddlddddll, PS)” is 45%.
With GCCACAACATCTATTT (sugars l4 d10 l2, PS), the target mRNA inhibition by setting is: (Human Neuronal Cell, 0.2 µM) 37%; (Human Neuronal Cell, 1 µM) 38%.
“GATCATTCTCAACAATT (sugars l2 d1 l2 d7 l5, PS)” yielded a target mRNA inhibition (Human Neuronal Cell, 7.5 µM) of 25%.
Take GCATTCAACCCTAATC (sugars l4 d10 l2, PS): the target mRNA inhibition was 46% (Human Neuronal Cell, 0.2 µM) and 47% (Human Neuronal Cell, 1 µM).
In turn, “TTCTGTATACACCATCC (sugars l1 d3 l1 d10 l2, PS)” showed a target mRNA inhibition (Human Neuronal Cell, 7.5 µM) of 50%.
Consider AACCCATTTCTAACAT (sugars l4 d10 l2, PS), for which the target mRNA inhibition worked out at 35% (Human Neuronal Cell, 0.2 µM) and 56% (Human Neuronal Cell, 1 µM).
Taken in the same sequence, the figures for GTTCTACTATACTTTC (sugars l4 d10 l2, PS) were 61% and 66%.
ATCCAAAGTTTCTTTC (sugars l4 d10 l2, PS) had a target mRNA inhibition (Human Neuronal Cell, 0.2 µM) of 43% and a target mRNA inhibition (Human Neuronal Cell, 1 µM) of 34%.
The sequence “CAGCTTTTAACCAGAGTGG (sugars l1 d15 l3, PS)” registered a target mRNA inhibition (Human Neuronal Cell, 7.5 µM) of 69%.
On the same count and under the same terms, the figure for “AGATCATTCTCAACAATTA (sugars ldddllddddddldlddll, PS)” is 62%; for “CAACATTATTAACCACCTT (sugars l2 d10 l2 d3 l2, PS)” it is 43%.
As for “TCTCAGCTTCTTCAAAT (sugars l2 d12 l3, PS)”, the target mRNA inhibition (Human Neuronal Cell, 0.2 µM) was found to be 26% and the target mRNA inhibition (Human Neuronal Cell, 1 µM) turned out to be 23%.
As for “CATCTGCTACATATTCT (sugars l4 d11 l2, PS)”, the target mRNA inhibition by setting is: (Human Neuronal Cell, 0.2 µM) 53%; (Human Neuronal Cell, 1 µM) 62%.
Sequence “AGCAACATTATTAACCAC (sugars ldllldddddddllldll, PS)” displayed a target mRNA inhibition (Human Neuronal Cell, 7.5 µM) of 35%.
Still for that read-out and setting: the figure for “CTGTTTATACCCTTTCCA (sugars l1 d1 l1 d13 l2, PS)” is 50%; for “TTTTTTTCTTACTATCTTCA (sugars lddddddddddddldlddll, PS)” it is 55%; for “TTACACTTAATTATACTTCC (sugars ldddldldddddddllddll, PS)” it is 62%.
With CTATGTTAATACTTTC (sugars l4 d10 l2, PS), the target mRNA inhibition runs as follows: (Human Neuronal Cell, 0.2 µM) 26%; (Human Neuronal Cell, 1 µM) 31%.
Sequence “AGCAACATTATTAACCACC (sugars ldldlddddddddlddlll, PS)” returned a target mRNA inhibition (Human Neuronal Cell, 7.5 µM) of 53%.
Same read-out and setting: the figure for “AATTATTTATACACCATCAT (sugars ldddldlddddddldddlll, PS)” is 67%; for “TACTCTGCAATACACCA (sugars l2 d10 l2 d1 l2, PS)” it is 60%.
Sequence “CTACATCTCATACTTGC (sugars l2 d12 l3, PS)” yielded a target mRNA inhibition (Mouse Primary Neuronal Cell, 0.005 µM) of 97%.
In the case of GAATTTCAACTACTAT (sugars l2 d10 l4, PS), the target mRNA inhibition is, setting by setting: (Human Neuronal Cell, 0.2 µM) 34%; (Human Neuronal Cell, 1 µM) 45%.
